Source: ChEMBL document CHEMBL5543134, “Channeling Nicotinamide Phosphoribosyltransferase (NAMPT) to Address Life and Death” (J Med Chem, 2024)
pIC50: −log10 of the molar value. One block for each molecule: values may come before it.

Tests used:
A2780 = test: cells; conditions: Homo sapiens, A2780, 72 h
[1] = molecular target: Nicotinamide phosphoribosyltransferase (Mus musculus, UniProt Q99KQ4); test: Inhibition of N-terminal His-tagged mouse NAMPT transformed in Escherichia coli Rosetta cells
Nicotinamide phosphoribosyltransferase (Mus musculus, UniProt Q99KQ4), sequence (Q99KQ4 whole entry): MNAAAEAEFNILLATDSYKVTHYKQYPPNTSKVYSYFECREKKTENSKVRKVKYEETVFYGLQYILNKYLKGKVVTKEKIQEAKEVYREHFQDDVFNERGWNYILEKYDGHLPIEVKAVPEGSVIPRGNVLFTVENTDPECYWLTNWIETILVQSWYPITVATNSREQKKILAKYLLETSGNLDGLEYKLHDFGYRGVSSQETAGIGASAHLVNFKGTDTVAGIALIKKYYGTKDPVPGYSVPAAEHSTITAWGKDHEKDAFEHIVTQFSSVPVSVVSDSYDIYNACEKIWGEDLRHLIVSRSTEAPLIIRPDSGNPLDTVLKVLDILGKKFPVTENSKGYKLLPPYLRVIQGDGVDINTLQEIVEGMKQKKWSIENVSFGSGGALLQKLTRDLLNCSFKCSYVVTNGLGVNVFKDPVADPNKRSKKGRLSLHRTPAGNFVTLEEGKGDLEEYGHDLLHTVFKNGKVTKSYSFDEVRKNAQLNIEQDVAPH

HCT-116 [2] = test: cells; conditions: Homo sapiens, HCT-116, 48 h
[3] = molecular target: Nicotinamide phosphoribosyltransferase (Homo sapiens, UniProt P43490); test: Inhibition of NAMPT (unknown origin) using NAM and PRPP as substrates incubated for 2 hrs in presence of ATP by fluorimetric plate reader assay
Nicotinamide phosphoribosyltransferase (Homo sapiens, UniProt P43490), sequence (P43490 whole entry): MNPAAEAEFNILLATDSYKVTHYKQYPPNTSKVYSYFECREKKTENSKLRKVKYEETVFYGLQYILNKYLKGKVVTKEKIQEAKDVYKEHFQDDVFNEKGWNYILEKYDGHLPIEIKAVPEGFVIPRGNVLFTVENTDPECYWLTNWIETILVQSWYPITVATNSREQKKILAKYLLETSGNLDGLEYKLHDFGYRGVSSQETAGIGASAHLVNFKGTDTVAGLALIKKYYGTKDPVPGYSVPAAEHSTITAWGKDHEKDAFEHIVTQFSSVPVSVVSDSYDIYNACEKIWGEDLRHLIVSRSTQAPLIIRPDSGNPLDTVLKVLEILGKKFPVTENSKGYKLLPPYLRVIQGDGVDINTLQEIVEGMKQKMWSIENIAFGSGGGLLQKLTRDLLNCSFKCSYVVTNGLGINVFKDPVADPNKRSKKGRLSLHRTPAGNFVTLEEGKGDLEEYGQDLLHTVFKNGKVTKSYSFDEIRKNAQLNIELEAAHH

[4] = Cmax in Sprague-Dawley rat plasma at 60 mg/kg, ip measured up to 48 hrs by LC-MS/MS analysis; format: ADME, organism-based
[5] = Cmax in ICR mouse at 10 mg/kg, iv by LC-MS/MS analysis; format: ADME, organism-based; conditions: in vivo
HCT-116 [6] = test: Antitumor activity against human HCT-116 cells assessed as decrease in intracellular NAD level at 30 uM measured after 12 to 24 hrs by absorbance based assay; format: functional; parameters: scale not given: the % may be the effect or the level left; conditions: time 12-24 hrs

SMILES: O=S(=O)(c1ccc(NC(=S)NCc2ccncc2)cc1)N1CCCCC1
pIC50 (A2780): < 8.00

SMILES: CCOC(=O)c1ccc(NC(=O)NCc2ccncc2)cc1
pIC50 (A2780): 6.49

SMILES: CCOC(=O)c1ccc(NC(=S)NCc2ccncc2)cc1
pIC50 (A2780): 6.00

SMILES: CCN(CC)S(=O)(=O)c1ccc(NC(=O)NCc2ccncc2)cc1
pIC50 (A2780): 6.44

SMILES: Cn1nccc1-c1nc2ccc(NC(=O)NCc3ccncc3)cn2n1
pIC50 (A2780): 6.80

pIC50 [1]: 5.83
SMILES: CCN(CC)C(=O)c1noc2cc(NC(=O)NCc3cnco3)ccc12

SMILES: C#CCN(Cc1cc2c(=O)n(C)c(CN3CCN(CCN)CC3)nc2cc1Cl)c1ccc(C(=O)NCc2cccnc2)cc1
pIC50 (HCT-116 [2]): 9.17

pIC50 [3]: 6.55
SMILES: O=C(NCc1ccncc1)Nc1ccc(S(=O)(=O)N2C[C@H]3CC[C@@H](C2)O3)cc1

Cmax [4]: 6.7 µM
Cmax [5]: 14 µM
SMILES: O=C(/C=C/c1cccnc1)NCCCCC1CCN(C(=O)c2ccccc2)CC1 [DAPORINAD]

SMILES: Nc1cc(F)ccc1NC(=O)c1ccc(CNC(=O)/C=C/c2cccnc2)cc1 [TUCIDINOSTAT]
Activity (HCT-116 [6]): 50%
